Results: US7943759B2, “3-β-D-ribofuranosylthiazolo[4-5-d]pyrimidine nucleosides and uses thereof” (Anadys Pharmaceuticals, Inc., priority 2001, dated 2011)
Structures can show the parent of a compound that is named as a salt. Where two headings read alike, the source gives them in different places.

Columns and labels:
[1] = system: Cynomolgus monkey hepatocytes; settings: 2 h, 10 μm/ml
Description: Hepatocyes often are used to assess the degree to which a compound may be transformed in the body of an animal, and it is known that such transformations may vary with hepatocytes from different species in a way that reflects metabolism in the whole animal.
Cynomolgus monkey hepatocytes were purchased from a commercial supplier and used within 48 hours of preparation. Compounds were prepared in culture media at a concentration of 10 μm/ml and incubated in a standard system with 1,000,000 viable hepatocytes per ml for 2 hours at 37 degrees. The extent of conversion at the end of the incubation period was assessed by measuring 1 by LC-MS/MS.

[2] = system: Interferon Alpha (Mu-IFN-α); assay: Murine interferon alpha (Mu-IFN-α) in plasma of mice after oral dosing; format: in vivo; settings: for mice with detectable interferon in plasma, of the mice used: mice of Tables 1, 2 and 3, oral dosing
Source text: The normal mouse provides a useful system for the assessment of the degree to which the inventions described herein provide material improvement in the oral delivery of 1 (isatoribine). Not only can one measure the plasma concentrations of isatoribine arising from oral administration of the said prodrug(s) but also the extensive immunological research conducted in the mouse has provided reagents suitable for measuring the levels of interferon alpha, a cytokine of interest reflecting one of the desired biologic activities of isatoribine. […] Table 1 records the results of an assay for murine interferon alpha in the plasma of mice that were dosed two times with isatoribine, formulated in bicarbonate, at a level of 50 mg/kg by the oral route. […] Table 2 records the results of assays for murine interferon alpha in the plasma of mice that first were dosed with bicarbonate and then four hours later were dosed orally with isatoribine, formulated in bicarbonate, at a level of 50 mg/kg. Interferon was reported in the plasma from four mice, including two that had received the bicarbonate vehicle dose. […] Table 3 records the results of assays for murine interferon alpha in the plasma of mice that were dosed orally with val-isatoribine, dissolved in bicarbonate, at a dose that is equivalent to 50/mg/kg of isatoribine on a molar basis. […] Interferon was detected in all mice assayed at a given time point, indicating the reliability of the effect following val-isatoribine administration. […] The data tabulated in Tables 1, 2, and 3 may be also considered from the point of view of the incidence of measurable interferon levels.

[3] = Toxicology studies in dogs: GI tolerance (emesis, loose stool, GI lesions) and isatoribine exposure
Description: (§1) Formal toxicology studies of intravenously administered isatoribine and orally administered isatoribine and val-isatoribine were conducted in beagle dogs.
(§2) In each case the compound was administered as a solution, by gavage or by intravenous infusion. Multiple parameters were assessed, as is customary in a toxicology study. In the studies providing higher potential exposure to isatoribine, the plasma concentration of isatoribine was assessed by a LC/MS method.

[4] = cited from earlier work
[5] = dog, in vivo, iv, 12.5 mg/kg
Description: as §1, §2

Caco-2 cells = settings: human
Description: In vitro drug transport assays using differentiated and P-glycoprotein-expressing Caco2 cell monolayers are widely used to predict absorption rates of candidate drug compounds across the intestinal epithelial cell barrier. See, e.g., Hilgers, A. R. et al., Pharm.
Caco-2 cells (obtained from ATCC) are grown to confluency on permeable membranes in chambers allowing access to both the apical and basolateral sides of the membrane. The intact nature of the resulting cellular membrane is assessed using transepithelial electrical resistance. The test compound is added at a known concentration to the apical side of the membrane and the rate of appearance of the compound on the basolateral side of the membrane is assessed by analysis using either HPLC or LC-MS/MS.

[6] = Systemic exposure to isatoribine after oral administration to beagle dogs (plasma HPLC-MS/MS); format: in vivo; settings: at both 10 and 50 mg/kg dose
Description: The effect of a prodrug (val-isatoribine, 3) on the systemic exposure to isatoribine (1) after oral administration to beagle dogs was investigated. Isatoribine was prepared in sodium bicarbonate solution.
Four male and four female adult beagle dogs weighing between 15 to 27 kg and approximately 1-2 years old were used at the beginning of the study. The animals were divided into 2 groups of 2 males and 2 females each. The test material was administered by gavage on Days 1 and 8, allowing a 7-day washout period between administrations. Blood samples (2 mL) were collected from each animal at predose, 15, 30 minutes, 1, 2, 3, 4, 6, 8 and 10 hours into lithium heparin tubes after each dosing. The plasma was frozen at −70° C. until analysis. The plasma was analyzed for isatoribine by an HPLC-MS/MS assay.
The ratios for the key pharmacokinetic parameters defining the maximum concentration (Cmax) and total exposure as measured by the area under the time-concentration curve (AUC) for the prodrug and the bicarbonate solution at the 50 mg/kg dose are summarized in Table 6.

[7] = IV isatoribine, 25 mg/kg applied dose
[8] = dogs, oral isatoribine, 2.5 mg/kg isatoribine equivalent applied dose
[9] = oral val-isatoribine, 8.1 mg/kg isatoribine equivalent applied dose
[10] = oral val-isatoribine, 16 mg/kg isatoribine equivalent applied dose
[11] = oral val-isatoribine, 32 mg/kg isatoribine equivalent applied dose
[12] = oral val-isatoribine, 64 mg/kg isatoribine equivalent applied dose

## Nc1ncc2sc(=O)n([C@@H]3O[C@H](CO)[C@@H](O)[C@H]3O)c2n1 [Compound 79, 5-Amino-3-β-D-ribofuranosyl-3H-thiazolo-[4,5-d]pyrimidin-2-one]
[1]
  Monkey Hepatocytes: 10%
other
  melting point: 220 °C (dec.)

## CNc1nc(N)nc2c1sc(=O)n2[C@@H]1O[C@H](CO)[C@@H](O)[C@H]1O [Compound 18]
other
  melting point: > 108 °C

## CN(C)c1nc(N)nc2c1sc(=O)n2[C@@H]1O[C@H](CO)[C@@H](O)[C@H]1O [Compound 20, 5-Amino-7-dimethylamino-3-β-D-ribofuranosylthiazolo[4,5-d]pyrimidin-2-one]
other
  melting point: > 112 °C

## CC(C)[C@H](N)C(=O)OC[C@H]1O[C@@H](n2c(=O)sc3c(O)nc(N)nc32)[C@H](O)[C@@H]1O (as salt: hydrochloride) [Compound 3, 5-Amino-3-(5′-O-L-valinyl-β-D-ribofuranosyl)thiazolo[4,5-d]pyrimidine-2,7-dione Dihydrochloride]
other
  melting point: 166 to 168 °C (dec.)

## Nc1nc(N)c2sc(=O)n([C@@H]3O[C@H](CO)[C@@H](O)[C@H]3O)c2n1 [Compound 15, 5,7-Diamino-3-β-D-ribofuranosylthiazolo[4,5-d]pyrimidin-2-one]
other
  melting point: > 155 °C (dec.)

## Nc1nc(NC2CCCC2)c2sc(=O)n([C@@H]3O[C@H](CO)[C@@H](O)[C@H]3O)c2n1 [Compound 22, 5-Amino-7-cyclopentylamino-3-β-D-ribofuranosylthiazolo[4,5-d]pyrimidin-2-one]
other
  melting point: > 108 °C (dec.)

## Nc1nc(N2CCCC2)c2sc(=O)n([C@@H]3O[C@H](CO)[C@@H](O)[C@H]3O)c2n1 [Compound 23, 5-Amino-7-pyrrolidino-3-β-D-ribofuranosylthiazolo[4,5-d]pyrimidin-2-one]
other
  melting point: > 112.4 °C (dec.)

## Nc1nc2c(sc(=O)n2[C@@H]2O[C@H](CO)[C@@H](O)[C@H]2O)c(=O)[nH]1 [Compound 1, 5-amino-3-β-D-ribofuranosylthiazolo[4,5-d]pyrimidine-2,7-dione, reference compound]
[2]; mice dosed two times with isatoribine in bicarbonate, 50 mg/kg oral, interval of four hours
  interferon in plasma (result in words): no interferon was measurable
[2]
  mice with detectable interferon in plasma, of the mice used: 4 of the 114
[3]; [7]
  Emesis or loose stool: Neg.
  GI lesions or irritation: Neg.
[3]; IV isatoribine, 50 mg/kg applied dose
  GI lesions or irritation: Neg.
[3]; IV isatoribine, 100 mg/kg applied dose
  GI lesions or irritation: Neg.
[3]; intravenously administered isatoribine
  GI tract lesions at necropsy or histopathologic evaluation (result in words): No lesions were seen in the GI tract
[4]; [8]
  Emesis or loose stool: Neg.
  GI lesions or irritation: Neg.
[4]; dogs, oral isatoribine, 5 mg/kg isatoribine equivalent applied dose
  GI lesions or irritation: Neg.
[4]; orally administered isatoribine at 10 mg/kg
  dogs with multiple, scattered red lesions on the intestinal mucosa (gross histopathologic evaluation): four of eight dogs
[5]
  Emesis or loose stool: Neg.
  GI lesions or irritation: Neg.

## CC(=O)O[C@@H]1[C@H](OC(C)=O)[C@@H](CO)O[C@H]1n1c(=O)sc2cnc(N)nc21 [Compound 89, 5-Amino-3-(2′,3′-di-O-acetyl-β-D-ribofuranosyl)-3H-thiazolo[4,5-d]pyrimidin-2-one]
[1]
  Monkey Hepatocytes: 45%
  conversion to 1 compared with 79 (result in words): more extensively converted to 1 than is 79
Caco-2 cells
  Caco2 transport compared with 79 (result in words): significantly improved transport over 79

## CC(=O)OC[C@H]1O[C@@H](n2c(=O)sc3cnc(N)nc32)[C@H](OC(C)=O)[C@@H]1OC(C)=O [Compound 78, 5-Amino-3-(2′,3′,5′-tri-O-acetyl-β-D-ribofuranosyl)-3H-thiazolo[4,5-d]pyrimidin-2-one]
[1]
  Monkey Hepatocytes: 20%
  conversion to 1 compared with 79 (result in words): more extensively converted to 1 than is 79
Caco-2 cells
  Caco2 transport compared with 79 (result in words): significantly improved transport over 79

## CN[C@H](C(=O)OC[C@H]1O[C@@H](n2c(=O)sc3c(O)nc(N)nc32)[C@H](O)[C@@H]1O)C(C)C (as salt: hydrochloride) [Compound 11, 5-Amino-3-(5′-O-[α-L-N-methylvalinyl]-β-D-ribofuranosyl)thiazolo[4,5-d]pyrimidine-2,7-dione Hydrochloride]
other
  melting point: > 180 °C (dec.)

## CC(C)[C@H](N)C(=O)OC[C@H]1O[C@@H](n2c(=O)sc3c(O)nc(N)nc32)[C@H](O)[C@@H]1O [Compound 3, 5-Amino-3-(5′-O-L-valinyl-β-D-ribofuranosyl)thiazolo[4,5-d]pyrimidine-2,7-dione Dihydrochloride]
[2]; mice dosed orally with val-isatoribine in bicarbonate, equivalent to 50 mg/kg isatoribine
  interferon in plasma (result in words): interferon was readily measurable at 1.0 hour, 1.5 hours, and 2.0 hours after dosing
[2]
  mice with detectable interferon in plasma, of the mice used: 10 of the 30
[2]; mice, oral dosing, Tables 1-3
  increase of the magnitude of both the average and peak interferon response over isatoribine: twofold
[6]
  maximum concentrations of isatoribine after oral dosing compared to isatoribine itself: at least doubled
[3]; [9]
  Emesis or loose stool: Neg.
  GI lesions or irritation: Neg.
[3]; [10]
  Emesis or loose stool: Neg.
  GI lesions or irritation: Neg.
[3]; [11]
  Emesis or loose stool: Neg.
  GI lesions or irritation: Neg.
[3]; [12]
  Emesis or loose stool: Neg.
  GI lesions or irritation: Neg.
[3]; oral val-isatoribine, 130 mg/kg isatoribine equivalent applied dose
  GI lesions or irritation: Neg.
[3]; oral val-isatoribine, 260 mg/kg isatoribine equivalent applied dose
  GI lesions or irritation: Neg.
[3]; oral val-isatoribine, 390 mg/kg isatoribine equivalent applied dose
  GI lesions or irritation: Neg.
[3]; orally administered val-isatoribine
  GI lesions (result in words): No GI lesions were found

## COc1nc(N)nc2c1sc(=O)n2[C@@H]1O[C@H](CO)[C@@H](O)[C@H]1O [Compound 14, 5-Amino-3-β-D-ribofuranosyl-7-methoxy-thiazolo[4,5-d]pyrimidin-2-one]
other
  melting point: > 160 °C (dec.)
